# Results as given in patent US9290541B2, “TCL1 peptides for immunotherapy” (Board of Regents, The University of Texas System, priority 2011, dated 2016).
# Test system: PBMC from HLA-A2+ normal donors
# Test: IFN-γ ELISA of T cells stimulated with overlapping 15-mer TCL1 peptides
# Assay type: cell-based, human
# Conditions: three HLA-A2+ normal donors; 10 μg/ml peptide, 5 stimulations; ELISA after 18 hours
# Protocol: FIGS. 3A-E: TCL1-specific cytotoxic T cells can be generated from normal donors. (FIG. 3A) PBMCs from HLA-A2^+ normal donors were stimulated with overlapping 15-mer peptides spanning the entire length of the TCL1 protein (see Table 2). T cells from each condition were washed and incubated with autologous CD3-depleted PBMC as antigen-presenting cells (APC) in the presence or absence of the corresponding peptide. After 18 hours, the production of IFN-γ was determined in the supernatants by ELISA. Asterisk indicates significant IFN-γ production compared with control (P<0.05). Representative data from one of three normal donors tested is shown. (FIG. 3B) T cell lines generated from HLA-A2^+ normal donors using TCL165-79 peptide were incubated with APC in the presence or absence of the TCL165-79 peptide or control HIV Gag77-85 peptide, and intracellular cytokine assay was performed. The percentage of CD4^+ and CD8^+ T cells producing IFN-γ are shown. […] IFN-γ production was determined as in (FIG. 3A). […]
# Peptide-specific T-cell lines were generated from HLA-A2^+ normal donors and patients using methods previously reported (Hida et al., 2002). […] After 18 hours, the production of interferon (IFN)-γ was determined in the supernatants by ELISA. […]
sequence,measurement,value
TQIGPSLLPIMWQLY [TCL165-79],induction of peptide-specific IFN-γ-producing T cells,consistently induced peptide-specific IFN-γ-producing T cells
